# Measured values: patent US20100292255A1, “Therapeutic Compounds and Their Use in Treating Diseases and Disorders” (Myriad Pharmaceuticals, Inc., priority 2007, published 2010)
# Target: T1, purified human Hsp90
# T1 construct: purified human Hsp90 (Stressgen, SPP-770)
# Test: Hsp90 binding assay: displacement of BODIPY-labeled geldanamycin measured by fluorescence polarization
# Details: BODIPY-GM 10 nM, Hsp90 30 nM, overnight at room temperature; for IC50: read-out: GM displacement from purified Hsp90 measured by FP IC 50; for GM displacement from purified Hsp90 measured by FP Inhibition by 5 μM compd. (%): 5 μM compound
# How it was run: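 Fluorescence polarization measured displacement of BODIPY-geldanamycin (10 nM) from purified human Hsp90 (30 nM). The buffer was HEPES-KOH pH 7.3 with molybdate, NP-40, gamma globulin and DTT, 2% DMSO, overnight at room temperature, ex/em 485/530 nm. % inhibition was calculated against DMSO controls, and points confounded by compound fluorescence were excluded.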
IC50 [nM],GM displacement from purified Hsp90 measured by FP Inhibition by 5 μM compd. (%),SMILES
550,,"CS(=O)(=O)N1CCC(CCn2c(Sc3cc4c(cc3C#N)OCCO4)nc3c(N)ncnc32)CC1 [compound 54, 7-[(6-Amino-9-{2-[1-(methylsulfonyl)piperidin-4-yl]ethyl}-9H-purin-8-yl)thio]-2,3-dihydro-1,4-benzodioxine-6-carbonitrile]"
,26.0,CS(=O)(=O)N1CCC(CCn2cnc(N)c3nc(Sc4cc5c(cc4C#N)OCCO5)nc2-3)CC1 [compound 55]
120,,N#Cc1cc2c(cc1Sc1nc3c(N)ncnc3n1CCC1CCN(C=O)CC1)OCCO2 [compound 57]
180,,"Cn1nnnc1N1CCC(CCn2c(Sc3cc4c(cc3C#N)OCCO4)nc3c(N)ncnc32)CC1 [compound 58, 7-[(6-Amino-9-{2-[1-(1-methyl-1H-tetrazol-5-yl)piperidin-4-yl]ethyl}-9H-purin-8-yl)thio]-2,3-dihydro-1,4-benzodioxine-6-carbonitrile]"
60,,"CC(=O)N1CCC(CCn2c(Sc3cc4c(cc3C#N)OCCO4)nc3c(N)ncnc32)CC1 [compound 60, 7-({9-[2-(1-Acetylpiperidin-4-yl)ethyl]-6-amino-9H-purin-8-yl}thio)-2,3-dihydro-1,4-benzodioxine-6-carbonitrile]"
200,,CCC(=O)N1CCC(CCn2c(Sc3cc4c(cc3C#N)OCO4)nc3c(N)ncnc32)CC1 [compound 61]
,34.0,N#Cc1cc2c(cc1Sc1nc3c(N)ncn(CCn4c(=O)n5n(c4=O)CC=CC5)c-3n1)OCO2 [compound 63]
1500,,"Nc1ncnc2c1nc(Sc1cc3c(cc1[N+](=O)[O-])OCO3)n2CCC1CCN(C=O)CC1 [compound 64, 4-(2-{6-Amino-8-[(6-nitro-1,3-benzodioxol-5-yl)thio]-9H-purin-9-yl}ethyl)piperidine-1-carbaldehyde]"
,25.0,"Nc1ncn(CCC2CCN(C=O)CC2)c2nc(Sc3cc4c(cc3[N+](=O)[O-])OCO4)nc1-2 [compound 65, 4-(2-{6-Amino-8-[(6-nitro-1,3-benzodioxol-5-yl)thio]-3H-purin-3-yl}ethyl)piperidine-1-carbaldehyde]"
73,,"Nc1ncnc2c1nc(Sc1cc3c(cc1[N+](=O)[O-])OCCO3)n2CCC1CCN(C=O)CC1 [compound 66, 4-(2-{6-Amino-8-[(7-nitro-2,3-dihydro-1,4-benzodioxin-6-yl)thio]-9H-purin-9-yl}ethyl)piperidine-1-carbaldehyde]"
50,,"CC(=O)N1CCC(CCn2c(Sc3cc4c(cc3[N+](=O)[O-])OCCO4)nc3c(N)ncnc32)CC1 [compound 68, 9-[2-(1-Acetylpiperidin-4-yl)ethyl]-8-[(7-nitro-2,3-dihydro-1,4-benzodioxin-6-yl)thio]-9H-purin-6-amine]"
,46.0,"CC(=O)N1CCC(CCn2cnc(N)c3nc(Sc4cc5c(cc4[N+](=O)[O-])OCCO5)nc2-3)CC1 [compound 69, 3-[2-(1-Acetylpiperidin-4-yl)ethyl]-8-[(7-nitro-2,3-dihydro-1,4-benzodioxin-6-yl)thio]-3H-purin-6-amine]"
455,,CC(=O)N1CCC(CCn2c(Sc3cc4c(cc3[N+](=O)[O-])OCO4)nc3c(N)ncnc32)CC1 [compound 70]
,23.0,"CC(=O)N1CCC(CCn2cnc(N)c3nc(Sc4cc5c(cc4[N+](=O)[O-])OCO5)nc2-3)CC1 [compound 71, 3-[2-(1-Acetylpiperidin-4-yl)ethyl]-8-[(6-nitro-1,3-benzodioxol-5-yl)thio]-3H-purin-6-amine]"
,23.0,"CC(=O)N1CCC(CCn2cnc(N)c3nc(Sc4cc5c(cc4Cl)OCCO5)nc2-3)CC1 [compound 72, 3-[2-(1-Acetylpiperidin-4-yl)ethyl]-8-[(7-chloro-2,3-dihydro-1,4-benzodioxin-6-yl)thio]-3H-purin-6-amine]"
260,,"CC(=O)N1CCC(CCn2c(Sc3cc4c(cc3Cl)OCCO4)nc3c(N)ncnc32)CC1 [compound 73, 9-[2-(1-Acetylpiperidin-4-yl)ethyl]-8-[(7-chloro-2,3-dihydro-1,4-benzodioxin-6-yl)thio]-9H-purin-6-amine]"
,18.0,"CCC(=O)N1CCC(CCn2cnc(N)c3nc(Sc4cc5c(cc4C#N)C(=O)CC5)nc2-3)CC1 [compound 74, 6-({6-Amino-3-[2-(1-propionylpiperidin-4-yl)ethyl]-3H-purin-8-yl}thio)-3-oxoindane-5-carbonitrile]"
2500,,"CC(=O)N1CCC(CCn2c(Sc3cc4c(cc3CC#N)OCO4)nc3c(N)ncnc32)CC1 [compound 75, [6-({9-[2-(1-Acetylpiperidin-4-yl)ethyl]-6-amino-9H-purin-8-yl}thio)-1,3-benzodioxol-5-yl]acetonitrile]"

IC50 [nM],GM displacement from purified Hsp90 measured by FP Inhibition by 5 μM compd. (%),SMILES
70,,"Nc1ncnc2c1nc(Sc1cc3c(cc1I)CCC3)n2CCC1CCN(C=O)CC1 [compound 76, 4-(2-{6-Amino-8-[(6-iodo-2,3-dihydro-1H-inden-5-yl)thio]-9H-purin-9-yl}ethyl)piperidine-l-carbaldehyde]"
400,,"COc1ccc(OC(F)(F)F)c(Sc2nc3c(N)ncnc3n2CCC2CCN(C=O)CC2)c1 [compound 77, 4-[2-(6-Amino-8-{[5-methoxy-2-(trifluoromethoxy)phenyl]thio}-9H-purin-9-yl)ethyl]piperidine-1-carbaldehyde]"
,14.0,COc1ccc(OC(F)(F)F)c(Sc2nc3c(N)ncn(CCC4CCN(C=O)CC4)c-3n2)c1 [compound 78]
700,,COc1ccc(C#N)c(Sc2nc3c(N)ncnc3n2CCC2CCN(C=O)CC2)c1 [compound 79]
,34.0,COc1ccc(C#N)c(Sc2nc3c(N)ncn(CCC4CCN(C=O)CC4)c-3n2)c1 [compound 80]
100,,"CCCC(=O)N1CCC(CCn2c(Sc3cc4c(cc3Br)OCCO4)nc3c(N)ncnc32)CC1 [compound 81, 8-[(7-Bromo-2,3-dihydro-1,4-benzodioxin-6-yl)thio]-9-[2-(1-butyrylpiperidin-4-yl)ethyl]-9H-purin-6-amine]"
295,,"CCCC(=O)N1CCC(CCn2c(Sc3cc4c(cc3Br)OCO4)nc3c(N)ncnc32)CC1 [compound 82, 8-[(6-Bromo-1,3-benzodioxol-5-yl)thio]-9-[2-(1-butyrylpiperidin-4-yl)ethyl]-9H-purin-6-amine]"
,19.0,"CCCC(=O)N1CCC(CCn2cnc(N)c3nc(Sc4cc5c(cc4Br)OCCO5)nc2-3)CC1 [compound 83, 8-[(7-Bromo-2,3-dihydro-1,4-benzodioxin-6-yl)thio]-3-[2-(1-butyrylpiperidin-4-yl)ethyl]-3H-purin-6-amine]"
20,,Nc1ncnc2c1nc(Sc1cc3c(cc1Br)CCC3)n2CCC1CCN(C=O)CC1 [compound 84]
,35.0,Nc1ncn(CCC2CCN(C=O)CC2)c2nc(Sc3cc4c(cc3Br)CCC4)nc1-2 [compound 85]
60,,"Nc1ncnc2c1nc(Sc1cc3c(cc1Br)C(=O)CC3)n2CCC1CCN(C=O)CC1 [compound 86, 4-(2{6-Amino-8-[(6-bromo-l-oxo-2,3-dihydro-1H-inden-5-yl)thio]-9H-purin-9-yl}ethyl)piperidine-1-carbaldehyde]"
,20.0,"Nc1ncn(CCC2CCN(C=O)CC2)c2nc(Sc3cc4c(cc3Br)C(=O)CC4)nc1-2 [compound 87, 4-(2-{6-Amino-8-[(6-bromo-1-oxo-2,3-dihydro-1H-inden-5-yl)thio]-3H-purin-3-yl}ethyl)piperidine-l-carbaldehyde]"
80,,"C[C@H](O)C(=O)N1CCC(CCn2c(Sc3cc4c(cc3Br)OCCO4)nc3c(N)ncnc32)CC1 [compound 88, (2S)-1-[4-(2-{6-Amino-8-[(7-bromo-2,3-dihydro-1,4-benzodioxin-6-yl)thio]-9H-purin-9-yl}ethyl)piperidin-1-yl]-1-oxopropan-2-ol]"
90,,"Nc1ncnc2c1nc(Sc1cc3c(cc1Br)OCCO3)n2CCC1CCN(C(=O)CO)CC1 [compound 90, 2-[4-(2-{6-Amino-8-[(7-bromo-2,3-dihydro-1,4-benzodioxin-6-yl)thio]-9H-purin-9-yl}ethyl)piperidin-1-yl]-2-oxoethanol]"
,32.0,"Nc1ncn(CCC2CCN(C(=O)CO)CC2)c2nc(Sc3cc4c(cc3Br)OCCO4)nc1-2 [compound 91, 2-[4-(2-{6-Amino-8-[(7-bromo-2,3-dihydro-1,4-benzodioxin-6-yl)thio]-3H-purin-3-yl}ethyl)piperidin-1-yl]-2-oxoethanol]"
90,,"CC(C)(O)C(=O)N1CCC(CCn2c(Sc3cc4c(cc3Br)OCCO4)nc3c(N)ncnc32)CC1 [compound 92, 1-[4-(2-{6-Amino-8-[(7-bromo-2,3-dihydro-1,4-benzodioxin-6-yl)thio]-9H-purin-9-yl}ethyl)piperidin-1-yl]-2-methyl-1-oxopropan-2-ol]"
,53.0,"CC(C)(O)C(=O)N1CCC(CCn2cnc(N)c3nc(Sc4cc5c(cc4Br)OCCO5)nc2-3)CC1 [compound 93, l-[4-(2-{6-Amino-8-[(7-bromo-2,3-dihydro-1,4-benzodioxin-6-yl)thio]-3H-purin-3-yl}ethyl)piperidin-1-yl]-2-methyl-1-oxopropan-2-ol]"
,10.0,"COc1ccc(Br)c(Sc2nc3c(N)ncn(CCC4CCN(C(=O)CO)CC4)c-3n2)c1 [compound 94, 2-[4-(2-{6-Amino-8-[(2-bromo-5-methoxyphenyl)thio]-3H-purin-3-yl}ethyl)piperidin-1-yl]-2-oxoethanol]"
